Experimental data as given in patent US12139487B2, “Compounds and uses thereof” (Foghorn Therapeutics Inc., priority 2022, dated 2024).

How the values were obtained:
BRG-1 = molecular target: T1, BRG-1 (Homo sapiens, UniProt P51532); experiment: ATPase catalytic activity assay (ADP-Glo), BRG-1; assay type: biochemical; conditions: Table 10, read-out: BRG1 IC50
T1 construct: made in house; host or cells: High Five insect cells
Procedure, shortened: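 In this in vitro format, BRG-1 hydrolysis product ADP is detected via a two-step ADP-Glo workup (ATP removal, then ADP-to-ATP conversion with luciferase detection) followed by a luminescence read.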

BRM = molecular target: T2, BRM (Homo sapiens, UniProt P51531); experiment: ATPase catalytic activity assay (ADP-Glo), BRM; assay type: biochemical; conditions: Table 10; for Ratio (BRG1 IC50 (μM) divided by BRM IC50 (μM)): ATPase assay, selectivity BRG1/BRM; for IC50: ATPase catalytic activity assay (ADP-Glo)
T2 construct: made in house; host or cells: High Five insect cells
Procedure, shortened: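 ADP-Glo luminescence measures ADP produced by BRM ATPase (30 nM) during 1 h at room temperature. ATP is 400 μM, with 20 nM salmon sperm DNA as cofactor. Buffer: 20 mM Tris pH 8, 20 mM MgCl2, 50 mM NaCl, 0.1% Tween-20, 1 mM DTT.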

T2 sequence (P51531 whole entry): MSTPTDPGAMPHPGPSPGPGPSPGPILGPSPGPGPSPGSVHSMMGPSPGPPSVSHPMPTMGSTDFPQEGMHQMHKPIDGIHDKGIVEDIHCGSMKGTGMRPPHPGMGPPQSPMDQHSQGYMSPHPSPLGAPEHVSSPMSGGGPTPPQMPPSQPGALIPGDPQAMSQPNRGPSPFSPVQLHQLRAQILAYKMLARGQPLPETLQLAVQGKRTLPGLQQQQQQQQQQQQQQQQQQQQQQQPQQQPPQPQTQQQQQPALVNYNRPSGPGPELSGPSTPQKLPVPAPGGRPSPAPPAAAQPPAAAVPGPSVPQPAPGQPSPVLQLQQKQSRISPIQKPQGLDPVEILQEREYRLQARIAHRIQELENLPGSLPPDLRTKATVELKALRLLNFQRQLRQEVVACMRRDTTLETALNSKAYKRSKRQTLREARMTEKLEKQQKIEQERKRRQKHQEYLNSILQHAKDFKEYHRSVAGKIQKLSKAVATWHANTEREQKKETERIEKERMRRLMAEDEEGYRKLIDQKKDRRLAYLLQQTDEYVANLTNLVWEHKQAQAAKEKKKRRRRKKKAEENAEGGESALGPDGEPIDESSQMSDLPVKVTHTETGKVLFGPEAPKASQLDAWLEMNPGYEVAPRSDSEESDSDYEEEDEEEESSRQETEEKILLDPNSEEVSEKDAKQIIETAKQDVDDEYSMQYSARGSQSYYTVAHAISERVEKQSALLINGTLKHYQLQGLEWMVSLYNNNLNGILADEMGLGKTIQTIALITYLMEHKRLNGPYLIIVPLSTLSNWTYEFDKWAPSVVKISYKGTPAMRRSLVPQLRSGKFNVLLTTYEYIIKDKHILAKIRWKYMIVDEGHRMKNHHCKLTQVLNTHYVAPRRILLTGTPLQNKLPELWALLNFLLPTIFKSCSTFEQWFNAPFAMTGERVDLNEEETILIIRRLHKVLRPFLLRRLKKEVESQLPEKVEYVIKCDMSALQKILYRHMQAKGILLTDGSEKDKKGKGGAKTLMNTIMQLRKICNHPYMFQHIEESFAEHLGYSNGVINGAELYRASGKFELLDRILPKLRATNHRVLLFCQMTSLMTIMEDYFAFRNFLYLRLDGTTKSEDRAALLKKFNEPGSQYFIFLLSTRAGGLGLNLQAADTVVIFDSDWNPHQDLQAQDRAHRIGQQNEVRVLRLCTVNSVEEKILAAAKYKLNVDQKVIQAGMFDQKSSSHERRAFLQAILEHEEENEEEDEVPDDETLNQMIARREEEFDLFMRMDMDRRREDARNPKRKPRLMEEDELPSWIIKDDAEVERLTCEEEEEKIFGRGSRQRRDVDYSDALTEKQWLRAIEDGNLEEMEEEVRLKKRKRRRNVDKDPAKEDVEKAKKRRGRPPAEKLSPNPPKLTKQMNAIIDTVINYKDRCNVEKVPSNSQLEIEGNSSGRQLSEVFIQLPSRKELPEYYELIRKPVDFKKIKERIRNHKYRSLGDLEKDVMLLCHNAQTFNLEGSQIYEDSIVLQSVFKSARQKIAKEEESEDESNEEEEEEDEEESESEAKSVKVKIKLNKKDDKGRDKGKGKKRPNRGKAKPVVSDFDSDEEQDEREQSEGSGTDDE
T1 sequence (P51532 whole entry): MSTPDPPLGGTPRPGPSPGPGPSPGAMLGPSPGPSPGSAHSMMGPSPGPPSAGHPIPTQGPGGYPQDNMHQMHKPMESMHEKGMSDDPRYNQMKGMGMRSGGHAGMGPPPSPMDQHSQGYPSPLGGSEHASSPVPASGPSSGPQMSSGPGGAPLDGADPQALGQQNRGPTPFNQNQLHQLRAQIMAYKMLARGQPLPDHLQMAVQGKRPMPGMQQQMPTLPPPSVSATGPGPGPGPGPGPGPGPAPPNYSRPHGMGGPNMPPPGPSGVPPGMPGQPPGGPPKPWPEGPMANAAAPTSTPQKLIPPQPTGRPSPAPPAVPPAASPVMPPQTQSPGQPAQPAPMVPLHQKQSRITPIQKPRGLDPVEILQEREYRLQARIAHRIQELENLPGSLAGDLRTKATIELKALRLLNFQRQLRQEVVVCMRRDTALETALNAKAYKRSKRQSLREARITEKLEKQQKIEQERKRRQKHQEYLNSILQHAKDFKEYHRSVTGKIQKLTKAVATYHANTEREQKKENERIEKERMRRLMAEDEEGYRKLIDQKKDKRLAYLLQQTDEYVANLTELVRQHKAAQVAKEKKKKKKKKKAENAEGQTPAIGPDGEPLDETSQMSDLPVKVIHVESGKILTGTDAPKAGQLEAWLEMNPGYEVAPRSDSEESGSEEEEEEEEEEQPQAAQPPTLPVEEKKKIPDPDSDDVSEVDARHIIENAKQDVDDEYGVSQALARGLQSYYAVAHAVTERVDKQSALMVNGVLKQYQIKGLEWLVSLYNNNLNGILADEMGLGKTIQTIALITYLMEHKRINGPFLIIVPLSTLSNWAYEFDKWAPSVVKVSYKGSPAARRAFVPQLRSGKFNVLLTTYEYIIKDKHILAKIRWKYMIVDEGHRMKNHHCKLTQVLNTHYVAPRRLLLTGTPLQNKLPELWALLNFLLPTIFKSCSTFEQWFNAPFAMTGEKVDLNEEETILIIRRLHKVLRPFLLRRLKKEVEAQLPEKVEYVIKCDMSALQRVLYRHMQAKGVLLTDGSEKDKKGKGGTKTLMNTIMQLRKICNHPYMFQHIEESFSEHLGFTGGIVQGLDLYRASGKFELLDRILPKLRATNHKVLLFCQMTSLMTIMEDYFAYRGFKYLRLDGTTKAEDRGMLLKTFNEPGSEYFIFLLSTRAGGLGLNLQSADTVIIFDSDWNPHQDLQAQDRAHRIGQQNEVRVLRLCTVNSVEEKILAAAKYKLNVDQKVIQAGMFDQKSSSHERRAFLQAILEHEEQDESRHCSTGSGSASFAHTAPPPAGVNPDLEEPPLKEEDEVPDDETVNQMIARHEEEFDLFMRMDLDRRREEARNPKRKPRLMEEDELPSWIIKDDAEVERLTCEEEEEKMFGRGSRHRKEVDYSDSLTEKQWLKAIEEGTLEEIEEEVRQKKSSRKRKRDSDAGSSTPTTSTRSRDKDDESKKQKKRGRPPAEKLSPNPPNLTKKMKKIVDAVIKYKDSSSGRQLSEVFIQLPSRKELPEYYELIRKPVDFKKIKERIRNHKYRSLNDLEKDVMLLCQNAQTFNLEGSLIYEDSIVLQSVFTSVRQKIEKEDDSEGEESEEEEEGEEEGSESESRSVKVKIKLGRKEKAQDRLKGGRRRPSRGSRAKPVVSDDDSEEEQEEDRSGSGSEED

| Compound | IC50 (BRG-1) [nM] | Ratio (BRG1 IC50 (μM) divided by BRM IC50 (μM)) (BRM) | IC50 (BRM) [nM] |
| --- | --- | --- | --- |
| C[C@@H]1CN(c2cccc(-c3ccc4cnc(CNC(=O)c5cc(Br)c6c(c5)S(=O)(=O)[C@@H](F)CCO6)cc4n3)n2)C[C@H](C)O1 [Compound 255] | 207 | 23.96 | 8.1 |
| CCn1ccc2c(-c3ccc4cnc(CNC(=O)c5cc(F)c6c(c5)S(=O)(=O)[C@@H](F)CCO6)cc4n3)ccnc21 [Compound 256] | 112 | 13.83 | 8.1 |
| COc1nc([C@@H](C)F)ccc1-c1ccc2cnc(CNC(=O)c3cc(F)c4c(c3)S(=O)(=O)[C@@H](F)CCO4)cc2n1 [Compound 259] | 274 | 27.15 | 8.3 |
| C[C@H](NC(=O)c1cc(F)c2c(c1)S(=O)(=O)[C@@H](F)COC2)c1cc2nc(N3CCOc4ccc(C(F)F)nc43)ccc2cn1 [Compound 260] | 288 | 34.05 | 8.5 |
| C[C@H](NC(=O)c1cc(F)c2c(c1)S(=O)(=O)[C@@H](F)CCO2)c1cc2nc(N3CCOc4cc(N5CCC5)cnc43)ccc2cn1 [Compound 261] | 242 | 25.34 | 8.5 |
| O=C(NCc1cc2nc(N3CCCc4c(OC5CC5)ncc(F)c43)ccc2cn1)c1cc(F)c2c(c1)S(=O)(=O)[C@@H](F)CCO2 [Compound 262] | 166 | 19.49 | 8.5 |
| CC1CN(c2ccnc3c2OCCN3c2ccc3cnc(CNC(=O)c4cc(F)c5c(c4)S(=O)(=O)[C@@H](F)CCO5)cc3n2)C1 [Compound 263] | 89.7 | 10.51 | 8.5 |
| O=C(NCc1cc2nc(N3CCOc4cc(C(F)(F)F)cnc43)ccc2cn1)c1cc(F)c2c(c1)S(=O)(=O)[C@@H](F)CCO2 [Compound 265] | 101 | 11.56 | 8.7 |
| COc1cc(F)ccc1-c1ccc2cnc(CNC(=O)c3cc(F)c4c(c3)S(=O)(=O)[C@@H](F)CCO4)cc2n1 [Compound 266] | 154 | 18.84 | 8.7 |
| Cc1cc2c(-c3ccc4cnc(CNC(=O)c5cc(F)c6c(c5)S(=O)(=O)[C@@H](F)CCO6)cc4n3)ccnc2n1C [Compound 267] | 91.8 | 10.49 | 8.8 |
| O=C(NCc1cc2cc(-c3cccc([C@@H]4CC4(F)F)n3)ccc2cn1)c1cc(F)c2c(c1)S(=O)(=O)[C@@H](F)CCO2 [Compound 268] | 199 | 22.51 | 8.8 |
| C[C@H]1N(c2cnc3c(c2)OCCN3c2ccc3cnc(CNC(=O)c4cc(F)c5c(c4)S(=O)(=O)[C@@H](F)CCO5)cc3n2)CC1(F)F [Compound 269] | 110 | 11.77 | 8.9 |
| COc1cccc(-c2ccc3cnc(CNC(=O)c4cc(F)c5c(c4)S(=O)(=O)[C@@H](F)COC5)cc3n2)n1 [Compound 270] | 174 | 22.02 | 8.9 |
| COCCOc1cnc2c(c1)CCCN2c1ccc2cnc(CNC(=O)c3cc(F)c4c(c3)S(=O)(=O)[C@@H](F)CCO4)cc2n1 [Compound 271] | 294 | 29.78 | 8.9 |
| O=C(NCc1cc2nc(N3CCCc4ccc(C(F)F)nc43)ccc2cn1)c1cc(Cl)c2c(c1)S(=O)(=O)[C@@H](F)CCO2 [Compound 272] | 199 | 23.60 | 8.9 |
| COc1ccc(-c2ccc3cnc(CNC(=O)c4cc(F)c5c(c4)S(=O)(=O)[C@@H](F)CCO5)cc3n2)nc1[C@@H]1CC1(F)F [Compound 273] | 210 | 23.61 | 8.9 |
| C[C@@H](F)c1cnc2c(c1)OCCN2c1ccc2cnc(CNC(=O)c3cc(F)c4c(c3)S(=O)(=O)[C@@H](F)CCO4)cc2n1 [Compound 274] | 192 | 22.22 | 8.9 |

| Compound | IC50 (BRG-1) [nM] | Ratio (BRG1 IC50 (μM) divided by BRM IC50 (μM)) (BRM) | IC50 (BRM) [nM] |
| --- | --- | --- | --- |
| COCC1(c2cccc(-c3ccc4cnc(CNC(=O)c5cc(F)c6c(c5)S(=O)(=O)[C@@H](F)CCO6)cc4n3)n2)CC1 [Compound 275] | 128 | 14.02 | 9.1 |
| O=C(NCc1cc2nc(N3CCOc4cc(N5CC6CC6C5)cnc43)ccc2cn1)c1cc(F)c2c(c1)S(=O)(=O)[C@@H](F)CCO2 (stereo partly drawn) [Compound 276] | 132 | 14.41 | 9.1 |
| O=C(NCc1cc2nc(N3CCOc4ccc([C@H]5C[C@H]5F)nc43)ccc2cn1)c1cc(F)c2c(c1)S(=O)(=O)[C@@H](F)CCO2 [Compound 277] | 90 | 19.61 | 9.1 |
| C[C@H](NC(=O)c1cc(F)c2c(c1)S(=O)(=O)[C@@H](F)COC2)c1cc2nc(N3CCOc4cc(C5CC5)cnc43)ccc2cn1 [Compound 278] | 75.5 | 9.67 | 9.2 |
| O=C(NCc1cc2nc(N3CCOc4ccc([C@H](F)CF)nc43)ccc2cn1)c1cc(F)c2c(c1)S(=O)(=O)[C@@H](F)CCO2 [Compound 279] | 164 | 18.19 | 9.2 |
| COc1ccc(-c2ccc3cnc(CNC(=O)c4cc(F)c5c(c4)S(=O)(=O)[C@@H](F)COC5)cc3n2)nc1[C@H]1CC1(F)F [Compound 280] | 106 | 11.58 | 9.2 |
| C#Cc1cnc2c(c1)OCCN2c1ccc2cnc(CNC(=O)c3cc(F)c4c(c3)S(=O)(=O)[C@@H](F)CCO4)cc2n1 [Compound 281] | 94.3 | 10.16 | 9.3 |
| O=C(NCc1cc2nc(N3CCOc4cc(F)cnc43)ccc2cn1)c1cc(F)c2c(c1)S(=O)(=O)[C@@H](F)CCO2 [Compound 282] | 163 | 17.58 | 9.4 |
| O=C(NCc1cc2cc(-c3cncc(C4CCC4)n3)ccc2cn1)c1cc(F)c2c(c1)S(=O)(=O)[C@@H](F)CCO2 [Compound 283] | 385 | 28.86 | 9.4 |
| C[C@@H]1CN(c2cnc3c(c2)OCCN3c2ccc3cnc(CNC(=O)c4cc(F)c5c(c4)S(=O)(=O)[C@@H](F)CCO5)cc3n2)C[C@@H]1F [Compound 284] | 105 | 11.05 | 9.5 |
| O=C(NCc1cc2nc(N3CCOc4c(N5CC(F)C5)ccnc43)ccc2cn1)c1cc(F)c2c(c1)S(=O)(=O)[C@@H](F)CCO2 [Compound 285] | 94.6 | 9.97 | 9.5 |
| O=C(NCc1cc2nc(N3CCOc4cc(N5CCC[C@H](F)C5)cnc43)ccc2cn1)c1cc(F)c2c(c1)S(=O)(=O)[C@@H](F)CCO2 [Compound 286] | 196 | 20.51 | 9.6 |
| COc1nc([C@H](F)C(F)F)ccc1-c1ccc2cnc(CNC(=O)c3cc(F)c4c(c3)S(=O)(=O)[C@@H](F)CCO4)cc2n1 [Compound 287] | 113 | 11.77 | 9.6 |
| COc1nscc1-c1ccc2cnc(CNC(=O)c3cc(F)c4c(c3)S(=O)(=O)[C@@H](F)CCO4)cc2n1 [Compound 288] | 203 | 26.09 | 9.6 |
| C[C@@H]1CCN1c1cnc2c(c1)OCCN2c1ccc2cnc(CNC(=O)c3cc(Cl)c4c(c3)S(=O)(=O)[C@@H](F)COC4)cc2n1 [Compound 289] | 115 | 11.49 | 9.6 |
| O=C(NCc1cc2nc(-c3ccnc(C45CC(C4)C5)n3)ccc2cn1)c1cc(F)c2c(c1)S(=O)(=O)[C@@H](F)COC2 [Compound 290] | 187 | 17.27 | 9.6 |
| COc1nc(CC(F)F)ccc1-c1ccc2cnc(CNC(=O)c3cc(F)c4c(c3)S(=O)(=O)[C@@H](F)CCO4)cc2n1 [Compound 292] | 226 | 23.12 | 9.8 |
